Laboratory results taken from patent US9011867B2, “Use of specific peptides in the preparation of a medicament for the treatment of monoclonal gammopathy of undetermined significance (MGUS) or of smoldering multiple myeloma (SMM)” (Ruprecht-Karls-Universitat Heidelberg, priority 2009, dated 2015).

Columns and labels:
[1] = test system: Melan-A analogue specific T-cells; assay: IFN-γ ELISpot-assay with peptide pulsed T2 cells, Melan-A analogue specific T-cells as effectors; format: cell-based, human; details: for activation of Melan-A analogue specific T-cells by peptide pulsed T2 cells (IFN-γ ELISpot): T-cells from HLA-A2+ HD, ET ratio 2.5/1, FIG. 1A
[2] = test system: HM1.24aa22-30-specific T-cells; assay: IFN-γ ELISpot-assay with peptide pulsed T2 cells, HM1.24aa22-30-specific T-cells as effectors; format: cell-based, human; details: T-cells from HLA-A2+ HD; ET ratio 2.5/1; FIG. 1A

Sequence	activation of Melan-A analogue specific T-cells by peptide pulsed T2 cells (IFN-γ ELISpot) [1]	IFN-γ production of Melan-A analogue specific T-cells activated by peptide pulsed T2 cells ([1]; T-cells from MM patient no. 10, FIG. 4B)	activation of HM1.24aa22-30-specific T-cells by peptide pulsed T2 cells (IFN-γ ELISpot) [2]
LLLGIGILV (peptide (HM 1.24)) [HM1.24aa22-30]	strong activation	produced IFN-γ	
VLLGLSALL [HM1.24aa171-179]	activated neither		activated neither
